What all share (assay): NCI tumour cell line growth inhibition, 48 h
Assay [1] relates to M14 melanoma.
The subject of assay [2] is ACHN renal.
The subject of assay [3] is RPMI-8226 leukemia.
The test system of assay [4] is SF-268 CNS.
For assay [5], the system named is COLO 205 colon.
Assay [6] deals with A498 renal.
The subject of assay [7] is OVCAR-3 ovarian.
In assay [8] the test system is CCRF-CEM leukemia.
The test system of assay [9] is SF-539 CNS.
The test system of assay [10] is CAKI-1 renal.

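A five-concentration, 48-hour dose response in 96-well plates underlies each endpoint, interpolated linearly between surrounding concentrations. TGI marks complete inhibition of growth.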

On to `CCOc1cc(C2CC(c3ccc(NS(=O)(=O)c4cc([N+](=O)[O-])ccc4C)cc3)=NN2C(=O)c2ccccc2)ccc1O` (stereo not given), for which the TGI was 76.1 µM in [1]; 85.3 µM in assay [2]; above 100 µM in assay [3]; above 100 µM in assay [4]; 31.4 µM in assay [5]; 44.3 µM in [6]. Further, the TGI in assay [7] is 36.3 µM; in assay [8], above 100 µM; in assay [9], 52.8 µM; in assay [10], above 100 µM.
In the case of `COc1cc(C2CC(C)(Nc3ccccc3)Oc3cc4c(cc32)OCO4)cc(OC)c1OC` (stereo not given), the TGI is above 63.1 µM in assay [1]; above 90.7 µM in [2]; 50.1 µM in assay [3]; above 100 µM in assay [4]; 5.27 µM in assay [5]; above 100 µM in assay [6]. The TGI in assay [7] was 3.52 µM; in assay [8], 3.72 µM; in [9] it was 0.477 µM; in [10] it was above 71.8 µM.
In the case of `CCCNC(=O)CCC(C)[C@H]1CCC2C3C(C[C@H](OC(C)=O)[C@@]21C)[C@@]1(C)CCC2(C[C@H]1C[C@H]3OC(C)=O)OOC1(CCC(C)CC1)OO2` (stereo not given in full), the TGI in assay [1] is above 100 µM; in assay [2], 4.08 µM; in assay [3] it was 19.4 µM; in [4] it was 50.8 µM; in [5], 29.9 µM; in assay [6], 74.5 µM. For the same compound, the TGI in assay [7] turned out to be 18.5 µM; in [8], 2.16 µM; in [9] it was 33.8 µM; in assay [10], 5.14 µM.
Turning to `CN(C)CCCN1C(=S)N(CCCN(C)C)c2c3cc(O)ccc3nc3c([N+](=O)[O-])ccc1c23`, the TGI in [1] was 22.4 µM; in [2], 11 µM; in assay [3], 15.5 µM; in assay [4], 7 µM; in assay [5] it was 15.9 µM; in assay [6] it was 5.47 µM. In addition, the TGI in assay [7] was determined as 5.56 µM; in assay [8] it was 19 µM; in assay [9] it was 17.1 µM; in [10], 15 µM.
`CN(C)c1nc(=NCc2ccccc2)ss1`: the TGI in assay [1], in assay [2], in assay [3], in assay [4], in [5] and in assay [6] was above 10 µM in each case. The TGI was above 10 µM in [7], 4.66 µM in assay [8], above 10 µM in assay [9] and above 10 µM in assay [10].
With `CN(C)Cc1cc(C(=O)/C=C/c2ccc(O)cc2)cc(CN(C)C)c1O`, the TGI in assay [1] is above 100 µM; in assay [2] it was 53.3 µM; in assay [3], 49.8 µM; in assay [4], above 100 µM; in [5] it was 33.9 µM; in assay [6] it was above 100 µM. The TGI in assay [7] is 56.2 µM; in assay [8] it was 88.3 µM; in assay [9], above 100 µM; in [10], above 100 µM.
For the compound `C=C[C@@H]1C(CO)=CCC2[C@H]1CCC1C(C)(C)C(=O)CC[C@]21C` (stereo not given in full), the TGI in assay [1], in assay [2], in assay [3], in [4], in [5] and in assay [6] was above 100 µM each time. For the same compound, the TGI in assay [7], in assay [8], in [9] and in assay [10] was above 100 µM throughout.
Turning to `CN(C)c1ccc(C=C2N=C(c3ccccc3)N(c3cc(C(=O)c4ccccc4)ccc3N3C(=O)/C(=C/c4ccc(N(C)C)cc4)N=C3c3ccccc3)C2=O)cc1`, the TGI was above 100 µM in [1]; above 100 µM in assay [2]; 8.86 µM in assay [3]; above 100 µM in assay [4]; 19.4 µM in assay [5]; above 100 µM in assay [6]. Further, the TGI was 5.57 µM in assay [7], above 100 µM in assay [8], 6.05 µM in assay [9] and above 100 µM in assay [10].
`Oc1ccccc1/C=N/c1nc2cc3sc(/N=C/c4ccccc4O)nc3cc2s1`: the TGI is above 100 µM in [1]; above 100 µM in [2]; above 100 µM in assay [3]; above 100 µM in assay [4]; 20.7 µM in assay [5]; above 100 µM in assay [6]. The TGI in assay [7], in assay [8], in assay [9] and in assay [10] was above 100 µM throughout.
Turning to `COC(=O)[C@]12CC[C@H]3CN(C(=O)OCc4ccccc4)[C@H]([C@H]31)[C@H](c1ccco1)N2S(=O)(=O)c1ccc(C)cc1`, the TGI in assay [1] was 44.6 µM; in [2], above 100 µM; in assay [3], 35.9 µM; in assay [4], 59.3 µM; in assay [5] it was 38.4 µM; in assay [6], 79.7 µM. The TGI is 40.4 µM in assay [7], above 100 µM in assay [8], above 100 µM in assay [9] and 89.4 µM in assay [10].
Consider `CCCn1c(CN(Cc2nc3ccccc3n2CCC)Cc2nc3ccccc3n2CCC)nc2ccccc21`, for which the TGI in [1] is 42 µM; in assay [2] it was above 100 µM; in assay [3], 5.36 µM; in [4], 27.9 µM; in assay [5], 13 µM; in assay [6], above 64.1 µM. For the same compound, the TGI in assay [7] is above 30.4 µM; in assay [8], 21.7 µM; in assay [9] it was above 50.9 µM; in [10] it was above 29 µM.

For the origin of these results see PubChem BioAssay (NCI).
